What was measured:
[1] = target: T1, Peptidyl-prolyl cis-trans isomerase FKBP5 (Homo sapiens, UniProt Q13451); assay: Binding affinity to FKBP51 FK1 domain by competitive fluorescence polarization assay
T1 sequence (Q13451 whole entry): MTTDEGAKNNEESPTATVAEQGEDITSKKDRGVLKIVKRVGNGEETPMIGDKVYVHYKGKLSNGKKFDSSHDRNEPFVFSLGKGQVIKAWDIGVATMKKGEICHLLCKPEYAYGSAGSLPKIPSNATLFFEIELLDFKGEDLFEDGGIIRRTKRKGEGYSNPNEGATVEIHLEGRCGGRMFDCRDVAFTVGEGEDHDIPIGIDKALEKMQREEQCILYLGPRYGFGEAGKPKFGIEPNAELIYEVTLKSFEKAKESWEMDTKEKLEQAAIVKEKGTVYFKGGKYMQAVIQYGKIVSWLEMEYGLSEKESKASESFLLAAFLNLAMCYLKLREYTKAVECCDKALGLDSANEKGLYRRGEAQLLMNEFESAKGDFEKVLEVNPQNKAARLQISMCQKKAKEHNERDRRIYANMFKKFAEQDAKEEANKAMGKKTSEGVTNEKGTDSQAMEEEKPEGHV

[2] = target: T2, Peptidyl-prolyl cis-trans isomerase FKBP4 (Homo sapiens, UniProt Q02790); assay: Binding affinity to FKBP52 FK1 domain by competitive fluorescence polarization assay
T2 sequence (Q02790 whole entry): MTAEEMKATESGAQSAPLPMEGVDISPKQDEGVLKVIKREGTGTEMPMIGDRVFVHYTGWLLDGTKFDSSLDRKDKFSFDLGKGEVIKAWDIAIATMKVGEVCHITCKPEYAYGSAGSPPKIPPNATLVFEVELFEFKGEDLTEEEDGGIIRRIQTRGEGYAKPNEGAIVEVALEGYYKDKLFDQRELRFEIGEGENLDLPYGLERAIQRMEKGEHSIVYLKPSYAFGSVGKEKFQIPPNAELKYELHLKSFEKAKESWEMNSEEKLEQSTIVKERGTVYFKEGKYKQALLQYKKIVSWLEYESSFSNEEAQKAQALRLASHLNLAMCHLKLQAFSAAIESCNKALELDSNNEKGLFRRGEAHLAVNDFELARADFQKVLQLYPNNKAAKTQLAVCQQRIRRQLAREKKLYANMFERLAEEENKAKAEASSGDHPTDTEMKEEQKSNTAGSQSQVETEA

[3] = target: Peptidyl-prolyl cis-trans isomerase FKBP1A (Homo sapiens, UniProt P62942); assay: Binding affinity to FKBP12 by competitive fluorescence polarization assay
Chain of Peptidyl-prolyl cis-trans isomerase FKBP1A (P62942 whole entry): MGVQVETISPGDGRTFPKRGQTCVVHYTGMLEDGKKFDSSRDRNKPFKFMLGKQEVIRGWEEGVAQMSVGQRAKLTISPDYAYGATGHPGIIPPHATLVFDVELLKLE

Structure (SMILES)	IC50 ([1]; read-out: IC50)	IC50 ([2]; read-out: IC50)	IC50 ([3]; read-out: IC50)	IC50 [1]	IC50 [2]	IC50 [3]
COC(=O)c1cc(C(=O)OC)cc(S(=O)(=O)N2CCCC[C@H]2C(=O)O[C@H](CCc2ccc(OC)c(OC)c2)c2cccc(OCC(=O)O)c2)c1	> 100 µM	> 100 µM	4.5 µM	–	–	–
COc1ccc(CC[C@@H](OC(=O)[C@@H]2CCCCN2S(=O)(=O)c2ccc(-c3ncccn3)cc2)c2cccc(OCC(=O)O)c2)cc1OC	–	> 100 µM	1.8 µM	–	–	–
COc1ccc(CC[C@@H](OC(=O)[C@@H]2CCCCN2S(=O)(=O)c2cccc(Cl)c2)c2cccc(OCC(=O)O)c2)cc1OC	–	–	1.2 µM	–	–	–
COc1ccc(CC[C@@H](OC(=O)[C@@H]2CCCCN2S(=O)(=O)c2ccc3ncsc3c2)c2cccc(OCC(=O)O)c2)cc1OC	11.6 µM	32.5 µM	1.1 µM	–	–	–
COc1ccc(CC[C@@H](OC(=O)[C@@H]2CCCCN2S(=O)(=O)c2ccoc2)c2cccc(OCC(=O)O)c2)cc1OC	> 100 µM	> 100 µM	10.1 µM	–	–	–
COc1ccc(CC[C@@H](OC(=O)[C@@H]2CCCCN2S(=O)(=O)c2cc3ccccc3s2)c2cccc(OCC(=O)O)c2)cc1OC	–	> 100 µM	4.6 µM	–	–	–
COc1ccc(CC[C@@H](OC(=O)[C@@H]2CCCCN2S(=O)(=O)c2cccc(C#N)c2)c2cccc(OCC(=O)O)c2)cc1OC	28.5 µM	69.9 µM	3.8 µM	–	–	–
COc1ccc(CC[C@@H](OC(=O)[C@@H]2CCCCN2S(=O)(=O)c2cccc([N+](=O)[O-])c2)c2cccc(OCC(=O)O)c2)cc1OC	47.2 µM	> 100 µM	1.9 µM	–	–	–
COc1ccc(CC[C@@H](OC(=O)[C@@H]2CCCCN2S(=O)(=O)c2cccc(N)c2)c2cccc(OCC(=O)O)c2)cc1OC	45.4 µM	> 100 µM	1.9 µM	–	–	–
COc1ccc(CC[C@@H](OC(=O)[C@@H]2CCCCN2S(=O)(=O)c2cccc(-c3ccnc(C)n3)c2)c2cccc(OCC(=O)O)c2)cc1OC	> 100 µM	> 100 µM	8.1 µM	–	–	–
COc1ccc(CC[C@@H](OC(=O)[C@@H]2CCCCN2S(=O)(=O)c2cccc(-c3ccncn3)c2)c2cccc(OCC(=O)O)c2)cc1OC	> 100 µM	> 100 µM	9.1 µM	–	–	–
COc1ccc(CC[C@@H](OC(=O)[C@@H]2CCCCN2S(=O)(=O)c2cccc(F)c2)c2cccc(OCC(=O)O)c2)cc1OC	54 µM	84.5 µM	1.09 µM	–	–	–
COc1ccc(CC[C@@H](OC(=O)[C@@H]2CCCCN2S(=O)(=O)c2cccc(Br)c2)c2cccc(OCC(=O)O)c2)cc1OC	15.8 µM	15.7 µM	0.32 µM	–	–	–
COc1ccc(CC[C@@H](OC(=O)[C@@H]2CCCCN2S(=O)(=O)c2cc(Cl)cc(Cl)c2)c2cccc(OCC(=O)O)c2)cc1OC	–	–	0.8 µM	–	–	–
COc1ccc(CC[C@@H](OC(=O)[C@@H]2CCCCN2S(=O)(=O)c2ccc(Cl)c(Cl)c2)c2cccc(OCC(=O)O)c2)cc1OC	> 100 µM	> 100 µM	6.1 µM	–	–	–
COc1ccc(CC[C@@H](OC(=O)[C@@H]2CCCCN2S(=O)(=O)c2ccc(OC)c(OC)c2)c2cccc(OCC(=O)O)c2)cc1OC	> 100 µM	> 100 µM	7.6 µM	–	–	–
COc1ccc(S(=O)(=O)N2CCCC[C@H]2C(=O)O[C@H](CCc2ccc(OC)c(OC)c2)c2cccc(OCC(=O)O)c2)cc1Cl	29.6 µM	40.3 µM	0.6 µM	–	–	–
COc1ccc(CC[C@@H](OC(=O)[C@@H]2CCCCN2S(=O)(=O)c2cc(F)cc(F)c2)c2cccc(OCC(=O)O)c2)cc1OC	88.2 µM	–	1 µM	–	–	–
COc1ccc(CC[C@@H](OC(=O)[C@@H]2CCCCN2S(=O)(=O)c2cc(C(F)(F)F)cc(C(F)(F)F)c2)c2cccc(OCC(=O)O)c2)cc1OC	> 100 µM	> 100 µM	5.1 µM	–	–	–
COc1ccc(CC[C@@H](OC(=O)[C@@H]2CCCCN2S(=O)(=O)c2cc(Br)cc(C(F)(F)F)c2)c2cccc(OCC(=O)O)c2)cc1OC	> 100 µM	> 100 µM	2.4 µM	–	–	–
COc1ccc(CC[C@@H](OC(=O)[C@@H]2CCCCN2S(=O)(=O)c2cc(Cl)c(O)c(Cl)c2)c2cccc(OCC(=O)O)c2)cc1OC	6.2 µM	20.3 µM	0.67 µM	–	–	–

Structure (SMILES)	IC50 ([1]; read-out: IC50)	IC50 ([2]; read-out: IC50)	IC50 ([3]; read-out: IC50)	IC50 [1]	IC50 [2]	IC50 [3]
COc1ccc(CC[C@@H](OC(=O)[C@@H]2CCCCN2S(=O)(=O)c2cc(Cl)c(OC)c(Cl)c2)c2cccc(OCC(=O)O)c2)cc1OC	–	–	0.23 µM	–	–	–
COc1ccc(CC[C@@H](OC(=O)[C@@H]2CCCCN2S(=O)(=O)c2cc(Cl)c(NC(C)=O)c(Cl)c2)c2cccc(OCC(=O)O)c2)cc1OC	16.1 µM	20.5 µM	1.18 µM	–	–	–
COc1ccc(CC[C@@H](OC(=O)[C@@H]2CCCCN2S(=O)(=O)c2cc(OC)c(OC)c(C(=O)O)c2)c2cccc(OCC(=O)O)c2)cc1OC	–	–	–	Not Active	Not Active	Not Active
COc1ccc(CC[C@@H](OC(=O)[C@@H]2CCCCN2S(=O)(=O)c2cc3c(c([N+](=O)[O-])c2)OCC3)c2cccc(OCC(=O)O)c2)cc1OC	–	–	1.5 µM	–	–	–
COc1ccc(CC[C@@H](OC(=O)[C@@H]2CCCCN2S(=O)(=O)c2cc(N)c3c(c2)CCO3)c2cccc(OCC(=O)O)c2)cc1OC	> 100 µM	> 100 µM	2.57 µM	–	–	–
COc1ccc(CC[C@@H](OC(=O)[C@@H]2CCCCN2S(=O)(=O)c2ccc3nc(C)sc3c2)c2cccc(OCC(=O)O)c2)cc1OC	–	–	1.2 µM	–	–	–
COc1ccc(CC[C@@H](OC(=O)[C@@H]2CCCCN2S(=O)(=O)c2ccc3[nH]c(=O)sc3c2)c2cccc(OCC(=O)O)c2)cc1OC	–	–	0.021 µM	–	–	–
COc1ccc(CC[C@@H](OC(=O)[C@@H]2CCCCN2S(=O)(=O)c2ccc3c(c2)CC(=O)N3)c2cccc(OCC(=O)O)c2)cc1OC	> 100 µM	> 100 µM	0.66 µM	–	–	–
COc1ccc(CC[C@@H](OC(=O)[C@@H]2CCCCN2S(=O)(=O)c2ccc3[nH]c(=O)oc3c2)c2cccc(OCC(=O)O)c2)cc1OC	> 100 µM	> 100 µM	0.75 µM	–	–	–
COc1ccc(OCCOC(=O)[C@@H]2CCCCN2S(=O)(=O)c2cc(Cl)cc(Cl)c2)cc1OC	> 100 µM	> 100 µM	> 100 µM	–	–	–
COc1ccc(OCCOC(=O)[C@@H]2CCCCN2S(=O)(=O)c2ccc3ncsc3c2)cc1OC	66.3 µM	> 100 µM	0.2 µM	–	–	–
COc1ccc(CC[C@@H](OC(=O)[C@@H]2CCCCN2S(=O)(=O)c2cc(Cl)cc(Cl)c2)c2cccc(OCCN3CCOCC3)c2)cc1OC	> 50 µM	> 50 µM	> 50 µM	–	–	–
COc1ccc(CC[C@@H](OC(=O)[C@@H]2CCCCN2S(=O)(=O)c2ccc3ncsc3c2)c2cccc(OCCN3CCOCC3)c2)cc1OC	> 50 µM	> 50 µM	> 50 µM	–	–	–
COc1ccc(CC[C@@H](OC(=O)[C@@H]2CCCCN2S(=O)(=O)c2cc(Cl)c(O)c(Cl)c2)c2cccc(OCCN3CCOCC3)c2)cc1OC	–	–	0.115 µM	–	–	–
COc1ccc(CC[C@@H](OC(=O)[C@@H]2CCCCN2S(=O)(=O)c2cc(Cl)c(OC)c(Cl)c2)c2cccc(OCCN3CCOCC3)c2)cc1OC	> 50 µM	> 50 µM	> 50 µM	–	–	–
COc1ccc(CC[C@@H](OC(=O)[C@@H]2CCCCN2S(=O)(=O)c2ccc3[nH]c(=O)sc3c2)c2cccc(OCCN3CCOCC3)c2)cc1OC	2.03 µM	3.41 µM	0.003 µM	–	–	–
COc1ccc(CC[C@@H](OC(=O)[C@@H]2CCCCN2S(=O)(=O)c2cc(Cl)c(NC(C)=O)c(Cl)c2)c2cccc(OCCN3CCOCC3)c2)cc1OC	–	–	0.45 µM	–	–	–
COc1ccc(CC[C@@H](NC(=O)[C@@H]2CCCCN2S(=O)(=O)c2cc(Cl)c(O)c(Cl)c2)c2cccc(OCC(=O)O)c2)cc1OC	> 100 µM	> 100 µM	> 100 µM	–	–	–
COc1ccc(CC[C@@H](NC(=O)[C@@H]2CCCCN2S(=O)(=O)c2ccc3[nH]c(=O)sc3c2)c2cccc(OCC(=O)O)c2)cc1OC	> 100 µM	> 100 µM	1.4 µM	–	–	–
O=C(OC(CCCc1cccnc1)CCCc1cccnc1)[C@@H]1CCCCN1S(=O)(=O)c1cc(Cl)c(O)c(Cl)c1	9.69 µM	15.1 µM	0.87 µM	–	–	–
CCC(C)(C)C(=O)C(=O)N1CCCC[C@H]1C(=O)O[C@H](CCc1ccc(OC)c(OC)c1)c1cccc(OCC(=O)O)c1	6.3 µM	9.37 µM	0.114 µM	–	–	–

From ChEMBL document CHEMBL2057077, “Exploration of pipecolate sulfonamides as binders of the FK506-binding proteins 51 and 52” (J Med Chem, 2012)
